In ChEMBL document CHEMBL1150139, “Four new neuroprotective iridoid glycosides from Scrophularia buergeriana roots” (2002):

Assays:
Assay type in all cases: functional
[1] = tested on: Cortical neurone; test: Neuroprotective activity against Sprague-Dawley rat cortical neurons assessed as glutamate-induced LDH release at 1 uM for 1 hr before glutamate challenge measured after 24 hrs by spectrophotometry
[2] = tested on: Cortical neurone; test: Neuroprotective activity against Sprague-Dawley rat cortical neurons assessed as glutamate-induced LDH release at 0.1 uM for 1 hr before glutamate challenge measured after 24 hrs by spectrophotometry
[3] = tested on: Cortical neurone; test: Neuroprotective activity against Sprague-Dawley rat cortical neurons assessed as glutamate-induced LDH release at 10 uM for 1 hr before glutamate challenge measured after 24 hrs by spectrophotometry

COc1ccc(/C=C/C(=O)O[C@@]2(C)C[C@@H](O)[C@]3(O)C=CO[C@@H](O[C@@H]4O[C@H](CO)[C@@H](O)[C@H](O)[C@H]4O)[C@@H]32)cc1
Activity [1]: 61.8%
Activity [2]: 54.9%
Activity [3]: 58.9%

COc1ccc(/C=C\C(=O)O[C@@]2(C)C[C@@H](O)[C@]3(O)C=CO[C@@H](O[C@@H]4O[C@H](CO)[C@@H](O)[C@H](O)[C@H]4O)[C@@H]32)cc1
Activity [1]: 48.2%
Activity [2]: 40.7%
Activity [3]: 49.6%

COc1ccc(/C=C\C(=O)OC[C@H]2O[C@@H](O[C@@H]3OC=C[C@@]4(O)[C@H](O)C[C@](C)(O)[C@@H]34)[C@H](O)[C@@H](O)[C@@H]2O)cc1
Activity [1]: 47.6%
Activity [2]: 33.3%
Activity [3]: 46.6%

COc1ccc(/C=C/C(=O)OC[C@H]2O[C@@H](O[C@@H]3OC=C[C@@]4(O)[C@H](O)C[C@](C)(O)[C@@H]34)[C@H](O)[C@@H](O)[C@@H]2O)cc1
Activity [1]: 60.9%
Activity [2]: 39.1%
Activity [3]: 60.3%

N#Cc1cc2c(cc1[N+](=O)[O-])=NC(=O)C(=O)N=2
Activity [1]: 47.3%
Activity [2]: 28.1%
Activity [3]: 61.6%

NC(CCCP(=O)(O)O)C(=O)O (racemic)
Activity [1]: 27.8%
Activity [2]: 5.7%
Activity [3]: 43.6%

C[C@]12N[C@H](Cc3ccccc31)c1ccccc12.O=C(O)/C=C\C(=O)O [DIZOCILPINE MALEATE]
Activity [1]: 61.5%
Activity [2]: 31.8%
Activity [3]: 83.6%

C[C@]1(O)C[C@@H](O)[C@]2(O)C=CO[C@@H](O[C@H]3O[C@H](CO)[C@@H](O)[C@H](O)[C@H]3O)[C@@H]21 [HARPAGIDE]
Activity [1]: 42.2%
Activity [2]: 41.4%
Activity [3]: 46.2%

C[C@]1(OC(=O)/C=C/c2ccccc2)C[C@@H](O)[C@]2(O)C=CO[C@@H](O[C@@H]3O[C@H](CO)[C@@H](O)[C@H](O)[C@H]3O)[C@@H]21 [HARPAGOSIDE]
Activity [1]: 38.5%
Activity [2]: 38.2%
Activity [3]: 44.7%

C[C@]1(OC(=O)/C=C\c2ccccc2)C[C@@H](O)[C@]2(O)C=CO[C@@H](O[C@@H]3O[C@H](CO)[C@@H](O)[C@H](O)[C@H]3O)[C@@H]21 [Z-harpagoside]
Activity [1]: 38.8%
Activity [2]: 26.4%
Activity [3]: 42.5%
